This is an account of results in paper PMC12802951, “Unravelling the triad of penicillin-binding proteins, β-lactamase activity, and mRNA dynamics in Pseudomonas aeruginosa AmpC induction” (Journal of Antimicrobial Chemotherapy, 2025).

The structures appear in SMILES notation. Read-outs that look alike come from different tables or passages of the source.

Experiment [1] addresses T1, PBP3 (Pseudomonas aeruginosa, UniProt G3XD46). Put plainly: Bocillin-FL competition in whole cells. The format is cell-based. More on the design: gene ftsI; native full-length protein in intact P. aeruginosa PAO1 cells, Bocillin-FL labelled. To be noted: intact PAO1 cells, 30 min incubation, covalent.
Another experiment concerns the target T2, PBP2 (Pseudomonas aeruginosa, UniProt G3XCV7).
T2 construct: gene pbpA; native full-length protein in intact P. aeruginosa PAO1 cells, Bocillin-FL labelled
T2 sequence (G3XCV7 1-646): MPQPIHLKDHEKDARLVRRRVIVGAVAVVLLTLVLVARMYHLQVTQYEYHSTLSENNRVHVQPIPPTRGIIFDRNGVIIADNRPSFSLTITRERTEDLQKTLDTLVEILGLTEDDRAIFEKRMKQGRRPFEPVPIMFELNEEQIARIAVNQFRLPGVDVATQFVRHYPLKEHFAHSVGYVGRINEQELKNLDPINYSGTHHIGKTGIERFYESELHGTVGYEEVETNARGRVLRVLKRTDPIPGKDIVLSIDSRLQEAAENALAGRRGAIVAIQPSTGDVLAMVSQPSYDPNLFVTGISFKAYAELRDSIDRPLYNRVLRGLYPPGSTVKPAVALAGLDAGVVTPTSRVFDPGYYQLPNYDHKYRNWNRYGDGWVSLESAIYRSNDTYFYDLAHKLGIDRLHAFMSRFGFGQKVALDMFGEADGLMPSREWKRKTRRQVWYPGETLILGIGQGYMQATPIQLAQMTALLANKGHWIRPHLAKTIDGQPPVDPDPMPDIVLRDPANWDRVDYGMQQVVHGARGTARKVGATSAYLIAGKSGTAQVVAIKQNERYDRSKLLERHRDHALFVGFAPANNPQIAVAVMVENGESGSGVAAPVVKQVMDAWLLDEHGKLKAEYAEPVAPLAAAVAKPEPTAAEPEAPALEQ
Kind of experiment: Bocillin-FL competition in whole cells. The format is cell-based. To be noted: intact PAO1 cells, 30 min incubation, covalent. From the text: Bocillin-FL competition in whole cells on PBP2

For another experiment, the target named is T3, PBP4 (Pseudomonas aeruginosa, UniProt Q9HZG1).
T3 construct: gene PA3047; native full-length protein in intact P. aeruginosa PAO1 cells, Bocillin-FL labelled
T3 sequence (Q9HZG1 entry or part of it): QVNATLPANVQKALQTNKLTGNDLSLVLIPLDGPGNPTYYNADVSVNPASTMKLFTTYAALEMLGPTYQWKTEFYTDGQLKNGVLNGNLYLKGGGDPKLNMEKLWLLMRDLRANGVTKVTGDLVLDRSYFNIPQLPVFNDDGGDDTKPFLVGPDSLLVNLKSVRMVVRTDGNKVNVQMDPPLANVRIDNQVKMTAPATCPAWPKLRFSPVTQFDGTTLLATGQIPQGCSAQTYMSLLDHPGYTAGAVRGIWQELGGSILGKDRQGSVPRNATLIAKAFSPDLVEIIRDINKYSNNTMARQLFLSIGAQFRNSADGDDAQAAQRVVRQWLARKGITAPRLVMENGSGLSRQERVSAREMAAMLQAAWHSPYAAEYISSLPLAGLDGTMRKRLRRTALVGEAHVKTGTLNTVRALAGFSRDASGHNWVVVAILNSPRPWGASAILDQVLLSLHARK
Put plainly: Bocillin-FL competition in whole cells. As to conditions: intact PAO1 cells, 30 min incubation, covalent. The format is cell-based. From the text:
Bocillin-FL competition in whole cells on PBP4

In another experiment the target is T4, PBP5 (Pseudomonas aeruginosa, UniProt G3XD74).
T4 construct: gene dacC; native full-length protein in intact P. aeruginosa PAO1 cells, Bocillin-FL labelled
T4 sequence (G3XD74 entry or part of it): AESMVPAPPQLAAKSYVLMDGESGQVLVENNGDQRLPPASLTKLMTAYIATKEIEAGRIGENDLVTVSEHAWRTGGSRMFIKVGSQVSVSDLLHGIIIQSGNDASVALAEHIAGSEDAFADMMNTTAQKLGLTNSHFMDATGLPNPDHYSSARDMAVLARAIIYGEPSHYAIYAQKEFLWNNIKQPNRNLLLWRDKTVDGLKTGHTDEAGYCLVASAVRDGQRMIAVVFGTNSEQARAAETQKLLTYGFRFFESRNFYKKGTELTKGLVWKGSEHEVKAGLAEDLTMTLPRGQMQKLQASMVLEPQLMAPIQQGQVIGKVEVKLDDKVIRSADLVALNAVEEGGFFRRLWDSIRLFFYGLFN
Kind of experiment: Bocillin-FL competition in whole cells. The format is cell-based. To be noted: intact PAO1 cells, 30 min incubation, covalent.

The target of experiment [2] is T1, PBP3. Kind of experiment: biochemical. More on the design: gene ftsI; native protein in lysed PAO1; species or system Pseudomonas aeruginosa PAO1; Bocillin FL labelling competition of PBPs in lysed P. aeruginosa PAO1. The text has this:
Abstract Objectives The main objective of the present work was to dissect the interplay between penicillin-binding protein (PBP) occupancy, ampC transcriptional dynamics, and β-lactamase activity in Pseudomonas aeruginosa. Methods Using wild-type PAO1 and isogenic LMW-PBP knockout mutants (PAOΔdacB, PAOΔdacBdacC, and PAOΔdacBdacCpbpG), we assessed ampC induction following exposure to 18 β-lactams and β-lactamase inhibitors. PBP binding (IC50) was quantified via Bocillin-FL labelling. AmpC mRNA levels were measured by qRT-PCR, and β-lactamase activity was determined in crude extracts, periplasmic and extracellular fractions using nitrocefin and cefalotin substrates. […] Binding to PBP4 is a recognized trigger for ampC induction.

The next experiment addresses T5, AmpC (Pseudomonas aeruginosa, UniProt P24735).
T5 construct: native chromosomal enzyme in crude extract of constitutive AmpC-overproducing triple LMW-PBP knockout
Put plainly: inhibition of nitrocefin / cefalotin hydrolysis in crude extract. The format is biochemical. To be noted: crude extract of PAOΔdacBdacCpbpG; 500 mg/L in Results (Methods: 50 and 100 μM); both substrates.

Where [3] appears, read: read-out: Drug mg/L^a / DOR / AVI.
The mark [4] stands for this setting: read-out: Drug mg/L^a / CAR / TZB.
Where [5] appears, read: read-out: Drug mg/L^a / MEM / FOX.
The mark [6] stands for this setting: read-out: Drug mg/L^a / ETP / CAZ.
[7] abbreviates: read-out: Drug mg/L^a / PIP / CLV.
Setting [8] is: read-out: Drug mg/L^a / MEC / SUL.
The mark [9] stands for this setting: read-out: Drug mg/L^a / TIC / REL.

T1 sequence (G3XD46 whole entry): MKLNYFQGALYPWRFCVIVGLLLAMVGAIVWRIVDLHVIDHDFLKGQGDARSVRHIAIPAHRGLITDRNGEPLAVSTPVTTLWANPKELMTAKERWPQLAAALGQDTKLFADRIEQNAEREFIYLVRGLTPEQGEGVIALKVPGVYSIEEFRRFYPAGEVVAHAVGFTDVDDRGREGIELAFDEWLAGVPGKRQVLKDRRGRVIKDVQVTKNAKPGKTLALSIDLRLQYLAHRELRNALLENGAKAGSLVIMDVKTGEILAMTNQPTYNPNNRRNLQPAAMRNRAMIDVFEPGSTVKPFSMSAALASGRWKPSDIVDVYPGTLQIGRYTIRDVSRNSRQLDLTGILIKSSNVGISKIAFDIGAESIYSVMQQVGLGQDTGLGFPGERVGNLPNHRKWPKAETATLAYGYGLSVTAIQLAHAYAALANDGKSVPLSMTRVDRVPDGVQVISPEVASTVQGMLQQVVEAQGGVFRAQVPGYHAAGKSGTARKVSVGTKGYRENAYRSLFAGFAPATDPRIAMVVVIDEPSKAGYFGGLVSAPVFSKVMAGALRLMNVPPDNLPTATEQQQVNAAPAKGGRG
T5 sequence (P24735 27-397): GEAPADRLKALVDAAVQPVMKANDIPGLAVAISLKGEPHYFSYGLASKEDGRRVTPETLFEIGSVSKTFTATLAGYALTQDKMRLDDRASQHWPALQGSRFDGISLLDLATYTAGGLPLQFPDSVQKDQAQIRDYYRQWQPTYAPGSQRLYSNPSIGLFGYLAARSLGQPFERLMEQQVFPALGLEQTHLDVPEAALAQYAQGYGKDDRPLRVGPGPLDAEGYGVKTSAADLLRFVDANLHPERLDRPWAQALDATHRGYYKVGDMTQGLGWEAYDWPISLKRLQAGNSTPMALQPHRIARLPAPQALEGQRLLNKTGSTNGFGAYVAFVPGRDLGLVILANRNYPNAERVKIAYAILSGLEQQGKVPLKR

As to `NC(=O)[C@@H]1CC[C@@H]2CN1C(=O)N2OS(=O)(=O)O` [avibactam], the IC50 was 38.8 µM on PBP3 [1] (setting [3]), 23.7 µM at PBP2 (setting [3]), 9.01 µM on PBP4 (setting [3]) and 12.4 µM on PBP5 (setting [3]).
With `C[C@H]1[C@H](NC(=O)/C(=N\OC(C)(C)C(=O)O)c2csc(N)n2)C(=O)N1S(=O)(=O)O` [aztreonam], the IC50 at PBP3 [2] is 0.184 µM; at PBP3 [1] (read-out: Drug mg/L^a / ATM), 1.75 µM; on PBP2 (read-out: Drug mg/L^a / ATM) it was 17 µM; on PBP4 (read-out: Drug mg/L^a / ATM) it was 3.1 µM; at PBP5 (read-out: Drug mg/L^a / ATM), 10.4 µM.
For `CC1(C)S[C@@H]2[C@H](NC(=O)C(C(=O)O)c3ccccc3)C(=O)N2[C@H]1C(=O)O` (some centres unmarked) [carbenicillin], the IC50 is 9.01 µM on PBP3 [1] (setting [4]), 85.4 µM on PBP2 (setting [4]) and 129 µM at PBP5 (setting [4]).
Turning to `CO/N=C(\C(=O)N[C@@H]1C(=O)N2C(C(=O)[O-])=C(C[N+]3(C)CCCC3)CS[C@H]12)c1csc(N)n1` [cefepime], the figures for the IC50 on PBP3 [1] (read-out: IPM / FEP), at PBP2 (read-out: IPM / FEP) and on PBP4 (read-out: IPM / FEP) were 0.437 µM, 2 µM and 0.52 µM, respectively.
`CO[C@@]1(NC(=O)Cc2cccs2)C(=O)N2C(C(=O)O)=C(COC(N)=O)CS[C@@H]21` [cefoxitin]: the “FOX IC50” value at PBP3 [2] (lysed PAO1, covalent) came to 10.7 µg/mL. Also, the IC50 at PBP3 [1] (setting [5]) is 5390 µM; at PBP2 (setting [5]), 4750 µM; at PBP4 (setting [5]), 47.7 µM; at PBP5 (setting [5]), 12.4 µM.
Consider `CC(C)(O/N=C(\C(=O)N[C@@H]1C(=O)N2C(C(=O)[O-])=C(C[n+]3ccccc3)CS[C@H]12)c1csc(N)n1)C(=O)O` [ceftazidime], for which the IC50 was 0.11 µM at PBP3 [2], 0.567 µM at PBP3 [1] (setting [6]), 2.73 µM on PBP2 (setting [6]) and 0.585 µM on PBP4 (setting [6]).
Take `O=C(O)[C@H]1/C(=C/CO)O[C@@H]2CC(=O)N21` [clavulanic acid]: the IC50 was 30.5 µM on PBP3 [1] (setting [7]), 56.2 µM at PBP2 (setting [7]), 21.8 µM at PBP4 (setting [7]) and 18.1 µM on PBP5 (setting [7]).
Take `Cc1onc(-c2ccccc2Cl)c1C(=O)N[C@@H]1C(=O)N2[C@@H]1SC(C)(C)[C@@H]2C(=O)O` [cloxacillin]: at AmpC, the “% reduction in hydrolysis rate at 500 mg/L” value is more than 95%.
With `C[C@@H](O)[C@H]1C(=O)N2C(C(=O)O)=C(S[C@@H]3CN[C@H](CNS(N)(=O)=O)C3)[C@H](C)[C@H]12` [doripenem], the IC50 is 0.309 µM at PBP3 [2]; 1.05 µM on PBP3 [1] (setting [3]); 0.69 µM at PBP2 (setting [3]); 0.0476 µM at PBP4 (setting [5]); 2.14 µM on PBP5 (setting [3]).
Consider `C[C@@H](O)[C@H]1C(=O)N2C(C(=O)O)=C(S[C@@H]3CN[C@H](C(=O)Nc4cccc(C(=O)O)c4)C3)[C@H](C)[C@H]12` [ertapenem], for which the IC50 was 0.4 µM at PBP3 [2]; 1.14 µM on PBP3 [1] (setting [6]); 0.673 µM on PBP2 (setting [6]); 0.105 µM on PBP4 (setting [6]); 1.7 µM at PBP5 (setting [6]).
Take `C[C@@H](O)[C@H]1C(=O)N2C(C(=O)O)=C(SCCN=CN)C[C@H]12` [imipenem]: the figures for the IC50 at PBP2 (read-out: IPM / FEP), at PBP4 (read-out: IPM / FEP) and on PBP5 (read-out: IPM / FEP) were 0.2 µM, 0.0334 µM and 0.2 µM, respectively.
As to `CC1(C)S[C@@H]2[C@H](N=CN3CCCCCC3)C(=O)N2[C@H]1C(=O)O` [mecillinam], the IC50 on PBP2 (setting [8]) is 870 µM; at PBP4 (setting [8]), 648 µM; on PBP5 (setting [8]), 1300 µM.
For `C[C@@H](O)[C@H]1C(=O)N2C(C(=O)O)=C(S[C@@H]3CN[C@H](C(=O)N(C)C)C3)[C@H](C)[C@H]12` [meropenem], the IC50 at PBP2 (setting [5]) is 3.99 µM; on PBP4 (setting [5]), 0.0522 µM; on PBP5 (setting [5]), 3.65 µM.
Regarding `CCN1CCN(C(=O)N[C@@H](C(=O)N[C@@H]2C(=O)N3[C@@H]2SC(C)(C)[C@@H]3C(=O)O)c2ccccc2)C(=O)C1=O` [piperacillin], the IC50 is 0.0966 µM on PBP3 [2]; 1.7 µM on PBP3 [1] (setting [7]); 4.21 µM at PBP2 (setting [7]); 3.23 µM at PBP4 (setting [7]); 6.09 µM on PBP5 (setting [7]).
For `O=C(NC1CCNCC1)[C@@H]1CC[C@@H]2CN1C(=O)N2OS(=O)(=O)O` [relebactam], the IC50 is 12.2 µM at PBP3 [1] (setting [9]), 17.1 µM at PBP2 (setting [9]), 24.4 µM on PBP4 (setting [9]) and 81.7 µM at PBP5 (setting [9]).
With `CC1(C)[C@H](C(=O)O)N2C(=O)C[C@H]2S1(=O)=O` [sulbactam], the IC50 on PBP3 [1] (setting [8]) is 9.09 µM; at PBP2 (setting [8]), 19.2 µM; at PBP4 (setting [8]), 12.4 µM; at PBP5 (setting [8]), 8.96 µM.
`C[C@]1(Cn2ccnn2)[C@H](C(=O)O)N2C(=O)C[C@H]2S1(=O)=O` [tazobactam]: the IC50 on PBP3 [1] (setting [4]) was 13.4 µM; on PBP2 (setting [4]), 11.9 µM; at PBP4 (setting [4]) it was 15.9 µM; on PBP5 (setting [4]), 15.9 µM.
As for `CC1(C)S[C@@H]2[C@H](NC(=O)[C@H](C(=O)O)c3ccsc3)C(=O)N2[C@H]1C(=O)O` [ticarcillin], the figures for the IC50 at PBP3 [1] (setting [9]), at PBP2 (setting [9]) and at PBP5 (setting [9]) were 6.4 µM, 51.5 µM and 682 µM, respectively.
